Results taken from the NIST ThermoML archive (doi:10.1016/j.fluid.2006.12.011).
Numbers after ± are expanded uncertainties.

Assay: xn = mol fraction of the nth substance listed
Details: Liquid, Vibrating tube method

C1CC[C@H]2CCCC[C@H]2C1 [cis-decahydronaphthalene] + C1CC[C@H]2CCCC[C@@H]2C1
mass density [kg/m3]
Details	x1 = 0.2	x1 = 0.35	x1 = 0.5	x1 = 0.65	x1 = 0.8	x1 = 1
303.15 K, 100 kPa	867.4 ± 1	871.5 ± 1.1	875.5 ± 1.1	879.2 ± 1.1	883.4 ± 1.1	888.5 ± 1.2
303.15 K, 5000 kPa	870.6 ± 1	874.6 ± 1.1	878.5 ± 1.1	882.3 ± 1.1	886.3 ± 1.1	891.4 ± 1.2
303.15 K, 10000 kPa	873.8 ± 1.1	877.7 ± 1.1	881.6 ± 1.1	885.3 ± 1.1	889.4 ± 1.2	894.4 ± 1.2
303.15 K, 15000 kPa	876.8 ± 1.1	880.7 ± 1.1	884.5 ± 1.1	888.3 ± 1.1	892.3 ± 1.2	897.3 ± 1.2
303.15 K, 20000 kPa	879.7 ± 1.1	883.6 ± 1.1	887.5 ± 1.1	891.2 ± 1.1	895.2 ± 1.2	899.9 ± 1.2
303.15 K, 25000 kPa	882.6 ± 1.1	886.4 ± 1.1	890.3 ± 1.1	894 ± 1.1	897.9 ± 1.2	902.8 ± 1.3
303.15 K, 30000 kPa	885.3 ± 1.1	889.2 ± 1.1	893 ± 1.1	896.7 ± 1.2	900.6 ± 1.2	905.5 ± 1.3
303.15 K, 35000 kPa	888 ± 1.1	891.8 ± 1.1	895.6 ± 1.1	899.3 ± 1.2	903.2 ± 1.2	908 ± 1.3
303.15 K, 40000 kPa	890.7 ± 1.1	894.5 ± 1.1	898.2 ± 1.1	901.9 ± 1.2	905.7 ± 1.2	910.6 ± 1.3
303.15 K, 45000 kPa	893.2 ± 1.1	896.9 ± 1.1	900.7 ± 1.1	904.4 ± 1.2	908.1 ± 1.2	913 ± 1.3
303.15 K, 50000 kPa	895.6 ± 1.1	899.4 ± 1.1	903 ± 1.2	906.7 ± 1.2	910.5 ± 1.2	915.3 ± 1.3
303.15 K, 55000 kPa	898 ± 1.1	901.7 ± 1.1	905.4 ± 1.2	909 ± 1.2	912.8 ± 1.2	917.6 ± 1.3
303.15 K, 60000 kPa	900.3 ± 1.1	904 ± 1.1	907.7 ± 1.2	911.3 ± 1.2	915.1 ± 1.2	919.9 ± 1.3
303.15 K, 65000 kPa	902.6 ± 1.1	906.3 ± 1.1	909.9 ± 1.2	913.6 ± 1.2	917.3 ± 1.3	922.1 ± 1.3
323.15 K, 100 kPa	852.1 ± 1	856.3 ± 1.1	860.2 ± 1.1	864.2 ± 1.1	868.1 ± 1.1	873.2 ± 1.2
323.15 K, 5000 kPa	855.9 ± 1	859.9 ± 1.1	863.7 ± 1.1	867.6 ± 1.1	871.6 ± 1.1	876.5 ± 1.2
323.15 K, 10000 kPa	859.4 ± 1.1	863.3 ± 1.1	867.1 ± 1.1	870.9 ± 1.1	874.9 ± 1.2	879.8 ± 1.2
323.15 K, 15000 kPa	862.7 ± 1.1	866.6 ± 1.1	870.4 ± 1.1	874.2 ± 1.1	878.1 ± 1.2	883 ± 1.2
323.15 K, 20000 kPa	865.9 ± 1.1	869.8 ± 1.1	873.5 ± 1.1	877.3 ± 1.1	881.2 ± 1.2	886 ± 1.2
323.15 K, 25000 kPa	869 ± 1.1	872.9 ± 1.1	876.5 ± 1.1	880.3 ± 1.1	884.2 ± 1.2	889 ± 1.3
323.15 K, 30000 kPa	872 ± 1.1	875.8 ± 1.1	879.4 ± 1.1	883.2 ± 1.2	887 ± 1.2	891.8 ± 1.3
323.15 K, 35000 kPa	874.9 ± 1.1	878.7 ± 1.1	882.3 ± 1.1	886.1 ± 1.2	889.8 ± 1.2	894.6 ± 1.3
323.15 K, 40000 kPa	877.6 ± 1.1	881.5 ± 1.1	885.1 ± 1.1	888.7 ± 1.2	892.6 ± 1.2	897.3 ± 1.3
323.15 K, 45000 kPa	880.4 ± 1.1	884.2 ± 1.1	887.7 ± 1.2	891.4 ± 1.2	895.2 ± 1.2	899.9 ± 1.3
323.15 K, 50000 kPa	882.9 ± 1.1	886.7 ± 1.1	890.3 ± 1.2	894 ± 1.2	897.7 ± 1.2	902.4 ± 1.3
323.15 K, 55000 kPa	885.5 ± 1.1	889.2 ± 1.1	892.8 ± 1.2	896.4 ± 1.2	900.2 ± 1.2	904.8 ± 1.3
323.15 K, 60000 kPa	888 ± 1.1	891.8 ± 1.2	895.3 ± 1.2	899 ± 1.2	902.7 ± 1.3	907.3 ± 1.3
323.15 K, 65000 kPa	890.5 ± 1.1	894.2 ± 1.2	897.7 ± 1.2	901.3 ± 1.2	905 ± 1.3	909.6 ± 1.3
343.15 K, 100 kPa	837.2 ± 1	841.1 ± 1.1	844.9 ± 1.1	849 ± 1.1	853.2 ± 1.1	857.8 ± 1.2
343.15 K, 5000 kPa	841.2 ± 1	845 ± 1.1	848.8 ± 1.1	852.7 ± 1.1	857 ± 1.1	861.5 ± 1.2
343.15 K, 10000 kPa	845 ± 1.1	848.9 ± 1.1	852.5 ± 1.1	856.5 ± 1.1	860.6 ± 1.2	865.1 ± 1.2
343.15 K, 15000 kPa	848.8 ± 1.1	852.5 ± 1.1	856.2 ± 1.1	860 ± 1.1	864.2 ± 1.2	868.6 ± 1.2
343.15 K, 20000 kPa	852.2 ± 1.1	855.9 ± 1.1	859.6 ± 1.1	863.4 ± 1.1	867.5 ± 1.2	871.9 ± 1.2
343.15 K, 25000 kPa	855.6 ± 1.1	859.3 ± 1.1	862.9 ± 1.1	866.7 ± 1.2	870.7 ± 1.2	875.1 ± 1.3
343.15 K, 30000 kPa	858.8 ± 1.1	862.6 ± 1.1	866.2 ± 1.1	870 ± 1.2	873.9 ± 1.2	878.3 ± 1.3
343.15 K, 35000 kPa	862 ± 1.1	865.6 ± 1.1	869.2 ± 1.1	873 ± 1.2	876.9 ± 1.2	881.2 ± 1.3
343.15 K, 40000 kPa	865 ± 1.1	868.6 ± 1.1	872.2 ± 1.2	875.9 ± 1.2	879.8 ± 1.2	884.1 ± 1.3
343.15 K, 45000 kPa	867.9 ± 1.1	871.6 ± 1.1	875.1 ± 1.2	878.8 ± 1.2	882.6 ± 1.2	887 ± 1.3
343.15 K, 50000 kPa	870.8 ± 1.1	874.4 ± 1.1	878 ± 1.2	881.6 ± 1.2	885.4 ± 1.2	889.7 ± 1.3
343.15 K, 55000 kPa	873.6 ± 1.1	877.1 ± 1.2	880.6 ± 1.2	884.3 ± 1.2	888 ± 1.3	892.3 ± 1.3
343.15 K, 60000 kPa	876.2 ± 1.1	879.7 ± 1.2	883.1 ± 1.2	886.9 ± 1.2	890.6 ± 1.3	894.9 ± 1.3
343.15 K, 65000 kPa	878.9 ± 1.2	882.4 ± 1.2	885.8 ± 1.2	889.5 ± 1.2	893.2 ± 1.3	897.4 ± 1.3
